# From ChEMBL document CHEMBL1649335, “Discovery of {1-[4-(2-{hexahydropyrrolo[3,4-c]pyrrol-2(1H)-yl}-1H-benzimidazol-1-yl)piperidin-1-yl]cyclooctyl}methanol, systemically potent novel non-peptide agonist of nociceptin/orphanin FQ receptor as analgesic for the treatment of neuropathic pain: design, synthesis, and structure-activity …” (Bioorg Med Chem, 2010)
# Active and inactive are the calls of the source.
# What was measured:
# [1] = Drug level Sprague-Dawley rat spinal cord at 10 mg/kg, sc after 0.5 hrs; type: ADME, organism-based; set-up: dose 10 mg/kg, route subcutaneous; details: read-out: Drug uptake
# [2] = system: Rattus norvegicus; assay: Antiallodynic activity against von Frey hair mechanically stimulated neuropathic pain in sc dosed Sprague-Dawley rat assessed as assessed as minimum effective dose to increase of response threshold after 30 mins; type: functional
# [3] = system: Rattus norvegicus; assay: Antiallodynic activity against von Frey hair mechanically stimulated neuropathic pain in sc dosed Sprague-Dawley rat assessed as assessed as minimum effective dose to increase of response threshold after 1 hr; type: functional
# [4] = system: Rattus norvegicus; assay: Antiallodynic activity against von Frey hair mechanically stimulated neuropathic pain in intrathecally dosed Sprague-Dawley rat assessed as increase of response threshold per site after 1 hr; type: functional
# [5] = system: Rattus norvegicus; assay: Antiallodynic activity against von Frey hair mechanically stimulated neuropathic pain in intrathecally dosed Sprague-Dawley rat assessed as assessed as minimum effective dose to increase of response threshold per site after 20 mins; type: functional
# [6] = system: Rattus norvegicus; assay: Antiallodynic activity against von Frey hair mechanically stimulated neuropathic pain in intrathecally dosed Sprague-Dawley rat assessed as assessed as minimum effective dose to increase of response threshold per site after 1 hr; type: functional
# [7] = system: Rattus norvegicus; assay: Antiallodynic activity against von Frey hair mechanically stimulated neuropathic pain in Sprague-Dawley rat assessed as increase of response threshold at 10 mg/kg, sc after 1 hr relative to control; type: functional; details: route subcutaneous
# [8] = system: Rattus norvegicus; assay: Antiallodynic activity against von Frey hair mechanically stimulated neuropathic pain in Sprague-Dawley rat assessed as increase of response threshold at 30 mg/kg, sc after 1 hr relative to control; type: functional; details: route subcutaneous
# [9] = system: Rattus norvegicus; assay: Antiallodynic activity against von Frey hair mechanically stimulated neuropathic pain in Sprague-Dawley rat assessed as effect on allodynia in contralateral paw at 1 to 30 mg/kg, sc after 1 hr; type: functional, organism-based
# [10] = system: Rattus norvegicus; assay: Antiallodynic activity against von Frey hair mechanically stimulated neuropathic pain in Sprague-Dawley rat assessed as effect on allodynia in contralateral paw at 1 to 30 mg/kg, sc after 4 hrs; type: functional, organism-based
# [11] = system: Rattus norvegicus; assay: Antiallodynic activity against von Frey hair mechanically stimulated neuropathic pain in Sprague-Dawley rat assessed as effect on allodynia in contralateral paw at 5.5 to 170 nmol/site administered intrathecally after 20 mins; type: functional, organism-based
# [12] = system: Rattus norvegicus; assay: Antiallodynic activity against von Frey hair mechanically stimulated neuropathic pain in Sprague-Dawley rat assessed as effect on allodynia in contralateral paw at 5.5 to 170 nmol/site administered intrathecally after 1 hr; type: functional, organism-based
# [13] = system: Rattus norvegicus; assay: Antiallodynic activity against von Frey hair mechanically stimulated neuropathic pain in Sprague-Dawley rat assessed as effect on allodynia in contralateral paw at 5.5 to 170 nmol/site, icv after 20 mins; type: functional, organism-based
# [14] = system: Rattus norvegicus; assay: Antiallodynic activity against von Frey hair mechanically stimulated neuropathic pain in Sprague-Dawley rat assessed as increase of response threshold per site at 55 nmol/site administered intrathecally after 20 mins relative to control; type: functional
# [15] = system: Rattus norvegicus; assay: Antiallodynic activity against von Frey hair mechanically stimulated neuropathic pain in Sprague-Dawley rat assessed as increase of response threshold per site at 55 nmol/site, icv after 20 mins relative to control; type: functional
# [16] = system: Rattus norvegicus; assay: Toxicity in von Frey hair mechanically stimulated neuropathic pain Sprague-Dawley rat model assessed as respiratory depression at up to 170 nmol/site, icv; type: organism-based; details: in vivo, icv_or_intrathecal
# [17] = system: Rattus norvegicus; assay: Toxicity in von Frey hair mechanically stimulated neuropathic pain Sprague-Dawley rat model assessed as sedation effect at up to 170 nmol/site, icv; type: organism-based; details: in vivo, icv_or_intrathecal
# [18] = biological target: Voltage-gated inwardly rectifying potassium channel KCNH2 (Homo sapiens, UniProt Q12809); assay: Displacement of [3H]dofetilide from human ERG expressed in HEK293 cells after 60 mins by liquid scintillation counting; type: cell-based
# [19] = biological target: Beta-1 adrenergic receptor (Homo sapiens) (UniProt P08588); assay: Inhibition of human beta1 adrenoceptor at 1 uM relative to control
# Beta-1 adrenergic receptor (Homo sapiens), sequence (P08588 whole entry, looked up): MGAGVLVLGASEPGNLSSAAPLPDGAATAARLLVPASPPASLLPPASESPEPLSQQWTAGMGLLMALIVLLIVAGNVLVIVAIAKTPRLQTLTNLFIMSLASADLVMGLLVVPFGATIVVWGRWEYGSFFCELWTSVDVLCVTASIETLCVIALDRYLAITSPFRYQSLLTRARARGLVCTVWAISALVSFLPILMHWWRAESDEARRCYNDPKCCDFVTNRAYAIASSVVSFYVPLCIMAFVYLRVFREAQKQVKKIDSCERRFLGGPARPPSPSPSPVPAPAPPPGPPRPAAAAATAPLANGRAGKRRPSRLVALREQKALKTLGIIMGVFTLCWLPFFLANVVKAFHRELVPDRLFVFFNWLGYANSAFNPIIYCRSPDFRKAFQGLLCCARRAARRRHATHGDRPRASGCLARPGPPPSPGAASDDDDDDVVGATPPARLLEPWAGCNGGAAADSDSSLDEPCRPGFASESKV
# [20] = biological target: Type-2 angiotensin II receptor (Homo sapiens) (UniProt P50052); assay: Inhibition of human angiotensin 2 AT2 receptor at 1 uM relative to control
# [21] = biological target: D(2) dopamine receptor (Homo sapiens) (UniProt P14416); assay: Inhibition of human dopamine D2 receptor at 1 uM relative to control
# [22] = biological target: D(3) dopamine receptor (Homo sapiens) (UniProt P35462); assay: Inhibition of human dopamine D3 receptor at 1 uM relative to control
# D(3) dopamine receptor (Homo sapiens), sequence (P35462 whole entry): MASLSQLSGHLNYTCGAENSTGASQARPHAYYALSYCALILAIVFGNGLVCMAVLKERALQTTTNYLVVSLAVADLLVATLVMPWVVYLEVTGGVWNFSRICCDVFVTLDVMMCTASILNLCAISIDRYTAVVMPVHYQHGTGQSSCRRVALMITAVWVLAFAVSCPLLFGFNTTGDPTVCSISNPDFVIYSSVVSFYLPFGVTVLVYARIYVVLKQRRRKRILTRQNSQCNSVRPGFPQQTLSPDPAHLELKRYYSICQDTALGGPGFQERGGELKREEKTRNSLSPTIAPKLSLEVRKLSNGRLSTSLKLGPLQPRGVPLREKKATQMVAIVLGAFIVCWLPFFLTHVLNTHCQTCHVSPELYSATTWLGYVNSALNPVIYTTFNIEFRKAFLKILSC
# [23] = biological target: D(4) dopamine receptor (Homo sapiens) (UniProt P21917); assay: Inhibition of human dopamine D4.4 receptor at 1 uM relative to control
# D(4) dopamine receptor (Homo sapiens), sequence (P21917 whole entry): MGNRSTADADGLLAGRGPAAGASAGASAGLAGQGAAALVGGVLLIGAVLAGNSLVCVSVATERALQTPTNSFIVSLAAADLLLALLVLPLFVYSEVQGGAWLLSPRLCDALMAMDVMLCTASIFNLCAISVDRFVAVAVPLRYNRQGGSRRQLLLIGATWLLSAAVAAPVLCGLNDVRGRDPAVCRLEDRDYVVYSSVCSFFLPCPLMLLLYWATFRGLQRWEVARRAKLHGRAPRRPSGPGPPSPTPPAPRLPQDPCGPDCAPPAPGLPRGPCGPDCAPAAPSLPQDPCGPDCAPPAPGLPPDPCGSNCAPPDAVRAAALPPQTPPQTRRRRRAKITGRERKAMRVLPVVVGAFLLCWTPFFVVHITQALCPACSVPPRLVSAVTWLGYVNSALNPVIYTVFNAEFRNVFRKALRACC
# [24] = biological target: Sodium-dependent dopamine transporter (Homo sapiens) (UniProt Q01959); assay: Inhibition of human dopamine transporter at 1 uM relative to control
# [25] = species on record: Rattus norvegicus; assay: Inhibition of rat GABA receptor at 1 uM relative to control
# [26] = species on record: Rattus norvegicus; assay: Inhibition of rat kainate receptor at 1 uM relative to control
# [27] = biological target: Cysteinyl leukotriene receptor 1 (Homo sapiens) (UniProt Q9Y271); assay: Inhibition of human leukotriene D4 receptor at 1 uM relative to control
# Cysteinyl leukotriene receptor 1 (Homo sapiens), sequence (Q9Y271 whole entry): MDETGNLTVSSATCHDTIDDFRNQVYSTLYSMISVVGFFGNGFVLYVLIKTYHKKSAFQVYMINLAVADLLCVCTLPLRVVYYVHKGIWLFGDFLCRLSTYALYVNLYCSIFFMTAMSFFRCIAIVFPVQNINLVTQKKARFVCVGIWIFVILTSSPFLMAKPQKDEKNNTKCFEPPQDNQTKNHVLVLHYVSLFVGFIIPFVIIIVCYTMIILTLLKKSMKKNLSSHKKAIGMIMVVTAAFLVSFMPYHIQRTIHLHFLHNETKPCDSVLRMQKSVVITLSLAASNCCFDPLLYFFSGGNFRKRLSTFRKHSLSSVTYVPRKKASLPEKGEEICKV
# [28] = biological target: Muscarinic acetylcholine receptor M1 (Homo sapiens) (UniProt P11229); assay: Inhibition of human muscarinic M1 receptor at 1 uM relative to control
# Muscarinic acetylcholine receptor M1 (Homo sapiens), sequence (P11229 whole entry): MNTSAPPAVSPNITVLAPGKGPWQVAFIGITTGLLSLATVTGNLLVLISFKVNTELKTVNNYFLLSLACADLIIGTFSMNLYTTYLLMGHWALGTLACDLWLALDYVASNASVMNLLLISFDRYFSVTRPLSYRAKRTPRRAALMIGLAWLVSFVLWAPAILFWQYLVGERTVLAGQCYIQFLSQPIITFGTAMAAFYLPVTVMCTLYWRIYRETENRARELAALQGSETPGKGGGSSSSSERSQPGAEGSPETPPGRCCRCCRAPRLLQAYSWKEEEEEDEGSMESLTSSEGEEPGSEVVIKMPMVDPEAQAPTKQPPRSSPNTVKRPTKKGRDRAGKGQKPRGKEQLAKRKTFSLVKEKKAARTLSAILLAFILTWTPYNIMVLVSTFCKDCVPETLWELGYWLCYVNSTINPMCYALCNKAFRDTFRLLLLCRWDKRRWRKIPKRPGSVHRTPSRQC
# [29] = species on record: Rattus norvegicus; assay: Inhibition of rat choline transporter at 1 uM relative to control
# [30] = species on record: Rattus norvegicus; assay: Inhibition of rat neuronal-type nicotinic acetylcholine receptor at 1 uM relative to control
# [31] = biological target: Substance-K receptor (Homo sapiens) (UniProt P21452); assay: Inhibition of human tachykinin NK2 receptor at 1 uM relative to control
# Substance-K receptor (Homo sapiens), sequence (P21452 whole entry): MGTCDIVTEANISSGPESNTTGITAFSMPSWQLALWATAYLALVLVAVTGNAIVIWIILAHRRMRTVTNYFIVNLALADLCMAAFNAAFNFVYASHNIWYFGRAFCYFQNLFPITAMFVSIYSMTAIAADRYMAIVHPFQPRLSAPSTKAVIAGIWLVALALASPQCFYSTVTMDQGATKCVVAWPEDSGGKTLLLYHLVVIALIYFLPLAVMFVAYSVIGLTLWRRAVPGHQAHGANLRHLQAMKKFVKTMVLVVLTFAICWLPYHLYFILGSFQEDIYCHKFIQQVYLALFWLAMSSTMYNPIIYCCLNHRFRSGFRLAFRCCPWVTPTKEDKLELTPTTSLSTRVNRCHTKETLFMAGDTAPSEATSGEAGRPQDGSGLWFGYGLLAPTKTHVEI
# [32] = biological target: Glucocorticoid receptor (Homo sapiens) (UniProt P04150); assay: Inhibition of human glucocorticoid receptor at 1 uM relative to control
# Glucocorticoid receptor (Homo sapiens), sequence (P04150 whole entry): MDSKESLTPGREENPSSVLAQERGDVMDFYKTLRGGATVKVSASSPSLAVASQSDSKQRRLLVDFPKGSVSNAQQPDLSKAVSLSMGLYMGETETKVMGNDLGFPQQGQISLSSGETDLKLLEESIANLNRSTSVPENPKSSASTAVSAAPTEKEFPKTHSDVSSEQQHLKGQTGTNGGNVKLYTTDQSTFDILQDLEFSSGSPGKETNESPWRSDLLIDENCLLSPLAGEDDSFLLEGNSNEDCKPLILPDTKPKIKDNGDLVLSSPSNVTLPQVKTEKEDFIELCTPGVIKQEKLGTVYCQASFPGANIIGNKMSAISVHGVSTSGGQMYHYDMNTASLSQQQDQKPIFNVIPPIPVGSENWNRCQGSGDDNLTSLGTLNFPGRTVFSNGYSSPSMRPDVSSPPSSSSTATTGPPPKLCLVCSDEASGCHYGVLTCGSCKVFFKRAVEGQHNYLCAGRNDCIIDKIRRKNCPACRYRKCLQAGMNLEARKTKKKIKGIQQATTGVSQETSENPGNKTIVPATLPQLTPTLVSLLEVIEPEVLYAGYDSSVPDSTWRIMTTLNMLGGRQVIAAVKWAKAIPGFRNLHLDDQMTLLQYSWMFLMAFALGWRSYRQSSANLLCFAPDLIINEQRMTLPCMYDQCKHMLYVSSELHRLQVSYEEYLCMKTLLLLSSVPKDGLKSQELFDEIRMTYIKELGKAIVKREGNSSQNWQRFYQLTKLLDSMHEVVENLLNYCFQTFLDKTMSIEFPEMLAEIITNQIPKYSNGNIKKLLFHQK
# [33] = biological target: Estrogen receptor (Homo sapiens) (UniProt P03372); assay: Inhibition of human estrogen receptor beta at 1 uM relative to control
# Estrogen receptor (Homo sapiens), sequence (P03372 whole entry): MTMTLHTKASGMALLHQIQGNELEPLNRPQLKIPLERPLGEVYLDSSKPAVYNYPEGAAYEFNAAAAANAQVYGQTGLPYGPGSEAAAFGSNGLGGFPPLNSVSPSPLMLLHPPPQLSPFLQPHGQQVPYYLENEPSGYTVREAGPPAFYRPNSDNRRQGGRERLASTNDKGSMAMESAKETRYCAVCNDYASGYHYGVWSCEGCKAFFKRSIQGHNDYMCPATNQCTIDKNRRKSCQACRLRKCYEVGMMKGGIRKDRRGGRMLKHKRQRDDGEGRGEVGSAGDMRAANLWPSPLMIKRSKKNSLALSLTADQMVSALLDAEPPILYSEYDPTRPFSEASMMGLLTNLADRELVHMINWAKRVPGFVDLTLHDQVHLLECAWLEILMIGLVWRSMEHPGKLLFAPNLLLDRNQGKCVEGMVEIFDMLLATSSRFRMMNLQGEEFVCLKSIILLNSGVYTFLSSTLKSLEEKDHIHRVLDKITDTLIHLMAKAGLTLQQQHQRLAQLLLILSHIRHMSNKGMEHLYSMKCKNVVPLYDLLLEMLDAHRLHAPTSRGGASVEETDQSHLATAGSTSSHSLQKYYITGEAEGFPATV
# [34] = biological target: L-type calcium channel, dihydropyridine site (Rattus norvegicus, UniProt P22002+P27732+Q02485); assay: Inhibition of rat L-type calcium channel dihydropyridine site at 1 uM relative to control
# [35] = biological target: L-type calcium channel, diltiazem site (Rattus norvegicus, UniProt P22002+P27732+Q02485); assay: Inhibition of rat L-type calcium channel diltiazem site at 1 uM relative to control
# [36] = species on record: Rattus norvegicus; assay: Inhibition of rat N-type calcium channel at 1 uM relative to control
# [37] = species on record: Rattus norvegicus; assay: Inhibition of rat chloride channel at 1 uM relative to control
# [38] = biological target: monoamine oxidase A (Homo sapiens, UniProt P21397); assay: Inhibition of human monoamine oxidase A at 1 uM relative to control
# [39] = biological target: Tyrosine 3-monooxygenase (Rattus norvegicus) (UniProt P04177); assay: Inhibition of rat tyrosine hydroxylase at 1 uM relative to control
# Tyrosine 3-monooxygenase (Rattus norvegicus), sequence (P04177 whole entry): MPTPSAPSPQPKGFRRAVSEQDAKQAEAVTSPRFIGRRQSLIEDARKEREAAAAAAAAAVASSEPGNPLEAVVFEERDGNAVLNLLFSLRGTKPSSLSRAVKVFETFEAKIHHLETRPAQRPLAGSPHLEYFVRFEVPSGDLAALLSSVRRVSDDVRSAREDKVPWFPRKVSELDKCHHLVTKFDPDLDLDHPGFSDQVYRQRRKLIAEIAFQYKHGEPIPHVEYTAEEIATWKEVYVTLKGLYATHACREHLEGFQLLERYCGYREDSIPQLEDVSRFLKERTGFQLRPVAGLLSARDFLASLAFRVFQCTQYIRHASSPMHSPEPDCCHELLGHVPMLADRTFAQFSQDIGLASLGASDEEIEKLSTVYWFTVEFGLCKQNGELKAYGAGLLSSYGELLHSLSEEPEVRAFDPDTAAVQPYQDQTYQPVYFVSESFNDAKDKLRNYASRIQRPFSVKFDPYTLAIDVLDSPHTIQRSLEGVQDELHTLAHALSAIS
# [40] = species on record: Rattus norvegicus; assay: Stimulation of rat adenylate cyclase at 1 uM relative to basal activity
# [41] = species on record: Rattus norvegicus; assay: Stimulation of rat guanylate cyclase at 1 uM relative to basal activity
# [42] = biological target: T1, Nociceptin receptor (Homo sapiens, UniProt P41146)
# T1 sequence (P41146 whole entry): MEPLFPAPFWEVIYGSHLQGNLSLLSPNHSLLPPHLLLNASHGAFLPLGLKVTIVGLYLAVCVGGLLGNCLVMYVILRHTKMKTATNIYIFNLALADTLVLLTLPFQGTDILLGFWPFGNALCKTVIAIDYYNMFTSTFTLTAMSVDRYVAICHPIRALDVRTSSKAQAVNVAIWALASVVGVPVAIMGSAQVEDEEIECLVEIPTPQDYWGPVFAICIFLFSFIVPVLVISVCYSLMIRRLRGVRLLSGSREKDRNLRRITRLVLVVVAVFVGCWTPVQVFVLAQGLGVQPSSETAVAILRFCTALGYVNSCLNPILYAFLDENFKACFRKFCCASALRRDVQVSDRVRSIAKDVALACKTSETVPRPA
# [43] = in vitro; details: human, liver microsomes
# [44] = biological target: T1, Nociceptin receptor; assay: biochemical
smiles,measurement,setting,value
OCC1(N2CCC(n3c(N4CC5CNCC5C4)nc4ccccc43)CC2)CCCCCCC1 (stereo not given),concentration at 0.5 h,[1],48 ng/mL
same,MED,[2],30 mg/kg
same,MED,[3],10 mg/kg
same,Activity,[4],Dose-dependent effect
same,ED50,[4],>170 nmol
same,MED,[5],55 nmol
same,MED,[6],55 nmol
same,Activity,[7],37.6%
same,Activity,[8],79.3%
same,Activity,[9],inactive
same,Activity,[10],inactive
same,Activity,[11],inactive
same,Activity,[12],inactive
same,Activity,[13],inactive
same,Activity,[14],49.4%
same,Activity,[15],23.7%
same,Activity,[16],Non-toxic
same,Activity,[17],Non-toxic
same,Ki,[18],3700 nM
same,inhibition,[19],< 10%
same,inhibition,[20],< 10%
same,inhibition,[21],< 10%
same,inhibition,[22],< 10%
same,inhibition,[23],< 10%
same,inhibition,[24],< 10%
same,inhibition,[25],< 10%
same,inhibition,[26],32%
same,inhibition,[27],< 10%
same,inhibition,[28],15%
same,inhibition,[29],11%
same,inhibition,[30],< 10%
same,inhibition,[31],< 10%
same,inhibition,[32],< 10%
same,inhibition,[33],< 10%
same,inhibition at 1 µM,[34],< 10%
same,inhibition at 1 µM,[35],18%
same,inhibition,[36],< 10%
same,inhibition,[37],< 10%
same,inhibition at 1 µM,[38],12%
same,inhibition,[39],< 10%
same,inhibition,[40],< 10%
same,inhibition,[41],< 10%
same,EC50,[42],12 nM
same,half-life at 1 µM,[43],45.6 min
same,Ki,[44],1.44 nM
